# Source: patent US20090257999A1, “Method of preventing contrast-induced nephropathy” (Inotek Pharmaceuticals Corporation, priority 2007, published 2009)
# Columns and labels:
# Type in all cases: in vivo, rat
# [1] = test system: diabetic rats; test: Histologic evaluation of kidney outer medulla damage, Example 1; settings: at 96 hours
# Experimental: (§1) Experimental model for assessing the effects of Metalloporphyrin A on CIN: Diabetic (n=8) for group #'s 1-9 or wild-type rats (n=10) for group #'s 10 and 11 were treated with drug 60 min prior to contrast agent administration. At the “0” time point, Iomeprol was administered with ensuing drug intervention dosing every 12 hours for Metalloporphyrin A from 24-84 hours or every 24 hours for NAC from 24-72 hours. At the 96 hour time point, kidneys were harvested for histopathology, MPO and MDA measurements. From 0-96 hours, plasma samples from all animals per group were screened for urea, creatinine, fractional excretion of Na^+ and NGAL.
# At postmortem, a […] section of kidney was removed and placed in formalin and processed through to wax. […] sections were cut and stained with hematoxylin and eosin. Histologic assessment of tubular necrosis was determined semi-quantitatively using a method modified from McWhinnie et al, Transplantation. 42(4):352-81986, 1986.
# Histologic assessment of outer medulla damage was examined by an experienced morphologist, who was not aware of the sample identity. […]
# [2] = test system: diabetic rats; test: CIN model, Example 2: NAC and Metalloporphyrin A in diabetic rats; settings: diabetic (STZ) rats + Iomeprol, NAC 3-100 mg/kg i.v., or NAC 10-100 mg/kg + Metalloporphyrin A 1 mg/kg i.v., at −30 min
# Experimental: Male Wistar rats (150-200 g; Harlan Nossanr) were housed in a controlled environment and provided with standard rodent chow and water. Diabetes was induced after 2 hours of fasting. The animals received a single 60 mg/kg intravenous (i.v.) injection of streptozotocin (Sigma, St. Louis, Mo.) in 10 mM sodium citrate buffer, pH 4.5 (see figure). Control non-diabetic animals were fasted and received citrate buffer alone. After 24 hours, animals with blood glucose levels greater than 250 mg/dl were considered diabetic. The diabetic state was confirmed by evaluating the blood glucose levels. Ten days following the induction of diabetes rats were anesthetized with 90 mg/kg ketamine i.m. and 10 mg/kg xylazine i.m. and were treated with the contrast agent iomeprol (10 mL/kg injected via the lateral tail vein) or with 0.9% normal saline. The contrast agent used was the low osmolar non-ionic monomer iomeprol (Iomeron, 400 mgI mL-1; Bracco SpA, Milan, Italy) with an osmolality of 726±34 mosmol/kg H2O.
# Blood samples were collected via the lateral tail vein into S1/3 tubes containing serum gel at 0 and 24 hours. The samples were centrifuged (6000 r.p.m. for 3 min) to separate plasma. All plasma samples were analyzed for biochemical parameters within 24 hours after collection. Plasma and urine concentrations of creatinine were measured as indicators of impaired glomerular function. Creatinine clearance was calculated using the following formula (=UV/P), where U refers to Creatinine concentration in urine, V to urine volume/min and P to serum creatinine.
# [3] = test system: diabetic rats; test: CIN model, Example 5: INO-1001 alone and with NAC in diabetic rats; settings: diabetic rats + Iomeprol, NAC 30 mg/kg i.v., INO-1001 10 mg/kg ip, or both, at −30 min
# Experimental: Male Wistar rats (150-200 g; Harlan Nossanr) were housed in a controlled environment and provided with standard rodent chow and water. Diabetes was induced after 12 h of fasting. The animals received a single 60 mg/kg intravenous (i.v.) injection of streptozotocin (Sigma, St. Louis, Mo.) in 10 mM sodium citrate buffer, pH 4.5 (see figure). Control non-diabetic animals were fasted and received citrate buffer alone. After 24 hours, animals with blood glucose levels greater than 250 mg/dl were considered diabetic. The diabetic state was confirmed by evaluating the blood glucose levels. Ten days following the induction of diabetes rats were anesthetized with 90 mg/kg ketamine i.m. and 10 mg/kg xylazine i.m. and were treated with the contrast agent iomeprol (10 mL/kg injected via the lateral tail vein) or with 0.9% normal saline. The contrast agent used was the low osmolar non-ionic monomer iomeprol (Iomeron, 400 mgI mL-1; Bracco SpA, Milan, Italy) with an osmolality of 726±34 mosmol/kg H2O.
# GROUP 1: Diabetic rats only+Placebo (i.v.). GROUP 2: Diabetic rats+Iomeprol+Placebo (i.v.) given at −30 min. GROUP 3: Diabetic rats+Iomeprol+NAC (30 mg/kg, i.v.) given at −30 min. GROUP 4: Diabetic rats+Iomeprol+INO-1001 (10 mg/kg, ip) given at −30 min. GROUP 5: Diabetic rats+Iomeprol+NAC (30 mg/kg, i.v.)+INO-1001 (10 mg/kg, ip) given at −30 min.
# Blood samples were collected via the lateral tail vein into S1/3 tubes containing serum gel at 24 hours. The samples were centrifuged (6000 r.p.m. for 3 min) to separate plasma. All plasma samples were analyzed for biochemical parameters within 24 hours after collection. Plasma and urine concentrations of creatinine were measured as indicators of impaired glomerular function. Creatinine clearance was calculated using the following formula (=UV/P), where U refers to Creatinine concentration in urine, V to urine volume/min and P to serum creatinine. Plasma and urine concentrations of NGAL (neutrophil gelatinase associated lipocalin) levels and urine αGST (alpha glutathione S-transferase) and NGAL levels were evaluated.
# Protein concentration in urine was determined by Bio-Rad DC Protein Assay (BioRad, Richmond Calif.). The Bio-Rad DC protein assay is a colorimetric assay for protein concentration. The reaction is similar to the well-documented Lowry assay (Lowry et al., Protein measurement with the Folin phenol reagent, J Biol Chem 193, 265-275 (1951). The Bio-Rad DC protein assay requires only a single 15-minute incubation, and absorbance is stable for a least 2 hours. The amount of protein is expressed in mg/ml.
# [4] = test system: Myeloperoxidase (MPO) activity in kidneys; test: Kidney myeloperoxidase (MPO) activity, Example 1; settings: at 96 hours
# Experimental: as §1
# Myeloperoxidase (MPO) activity in kidneys was used as an indicator of polymorphonuclear (PMN) cell infiltration activation using a method previously described (Hillegass et al, J. Pharmacol. Methods. 24(4):285-95,1990).
# At the end of the experiments, kidney tissue was weighed and homogenized in a solution containing 0.5% (wt/vol) hexadecyltrimethylammonium bromide dissolved in 10 mmol/L potassium phosphate buffer (pH 7.4) and centrifuged for 30 minutes at 20,000 g at 4° C. […] The rate of change in absorbance was measured spectrophotometrically at 650 nm. MPO activity was defined as the quantity of enzyme required to degrade 1 mmol of H2O2 at 37° C. and was expressed in U/g wet tissue.
# [5] = diabetic rats + i.v. Iomeprol, Metalloporphyrin A 30-1000 μg/kg or NAC 10 mg/kg i.p.
# [6] = diabetic rats + i.v. saline (no contrast agent), Metalloporphyrin A 1000 μg/kg or NAC 10 mg/kg i.p.
smiles,measurement,setting,value
"CC(=O)N[C@@H](CS)C(=O)O [NAC, N-acetylcysteine]",kidney injury (histological score),[1]; [5],significant reductions
same,kidney injury (histological score),[1]; [6],significantly reduced
same,plasma creatinine,[2]; 24 h,significant reductions
same,total protein concentration in the urine,[2]; 24 hours,significant reductions
same,urine αGST concentration,[2]; 24 hours,significant reduction
same,plasma creatinine,[3]; 24 h,significant reductions
same,plasma NGAL concentration,[3]; 24 hours,significant reductions
same,total protein concentration in the urine,[3]; 24 hours,significant reductions
same,urine NGAL concentration,[3]; 24 hours,significant reductions
same,urine αGST,[3]; 24 hours,significant reductions
same,kidney MPO activity,[4]; [5],significant reductions
same,kidney MPO activity,[4]; [6],significantly reduced the increase
